Measurements published in PubChem BioAssay (NCI).
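These data come from cells grown in 96-well plates and exposed to compound for 48 hours at five concentrations. GI50 marks 50% less growth. Definition used: TGI = concentration required for complete inhibition of growth.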

Legend:
Test in all cases: inhibition of tumour cell growth, NCI panel, 48 h
A549 NSCLC = system: A549 NSCLC
SR leukemia = system: SR leukemia
MDA-MB-435 = system: MDA-MB-435
UACC-62 melanoma = system: UACC-62 melanoma
EKVX NSCLC = system: EKVX NSCLC
SF-295 CNS = system: SF-295 CNS
HT29 colon = system: HT29 colon
786-0 renal = system: 786-0 renal
SK-MEL-2 melanoma = system: SK-MEL-2 melanoma
OVCAR-5 ovarian = system: OVCAR-5 ovarian
T-47D breast = system: T-47D breast
NCI/ADR-RES ovarian = system: NCI/ADR-RES ovarian
HOP-92 NSCLC = system: HOP-92 NSCLC
TK-10 renal = system: TK-10 renal
UO-31 renal = system: UO-31 renal
CCRF-CEM leukemia = system: CCRF-CEM leukemia
SW-620 colon = system: SW-620 colon
NCI-H460 lung = system: NCI-H460 lung
SK-MEL-5 melanoma = system: SK-MEL-5 melanoma
NCI-H23 lung = system: NCI-H23 lung
SNB-19 CNS = system: SNB-19 CNS
K-562 leukemia = system: K-562 leukemia
SF-268 CNS = system: SF-268 CNS
MDA-MB-231 breast = system: MDA-MB-231 breast
SK-MEL-28 melanoma = system: SK-MEL-28 melanoma
NCI-H226 lung = system: NCI-H226 lung
HL-60(TB) leukemia = system: HL-60(TB) leukemia
HCC-2998 colon = system: HCC-2998 colon
IGROV1 ovarian = system: IGROV1 ovarian
RPMI-8226 leukemia = system: RPMI-8226 leukemia
CAKI-1 renal = system: CAKI-1 renal
HCT-116 colon = system: HCT-116 colon
MALME-3M melanoma = system: MALME-3M melanoma
SNB-75 CNS = system: SNB-75 CNS
PC-3 prostate = system: PC-3 prostate
COLO 205 colon = system: COLO 205 colon
U251 CNS = system: U251 CNS
DU-145 prostate = system: DU-145 prostate
OVCAR-3 ovarian = system: OVCAR-3 ovarian
KM12 colon = system: KM12 colon
LOX IMVI melanoma = system: LOX IMVI melanoma
BT-549 breast = system: BT-549 breast
MOLT-4 leukemia = system: MOLT-4 leukemia
MCF7 breast = system: MCF7 breast
SK-OV-3 ovarian = system: SK-OV-3 ovarian
OVCAR-4 ovarian = system: OVCAR-4 ovarian
NCI-H522 lung = system: NCI-H522 lung
OVCAR-8 ovarian = system: OVCAR-8 ovarian
RXF 393 renal = system: RXF 393 renal
SF-539 CNS = system: SF-539 CNS
M14 melanoma = system: M14 melanoma
HOP-62 NSCLC = system: HOP-62 NSCLC
A498 renal = system: A498 renal
UACC-257 melanoma = system: UACC-257 melanoma
HS 578T breast = system: HS 578T breast
HCT-15 colon = system: HCT-15 colon
ACHN renal = system: ACHN renal
SN12C renal = system: SN12C renal

Cc1ccc2nc3ccccc3c(NCc3ccccc3)c2c1
GI50 (A549 NSCLC): 2.63 µM | TGI (A549 NSCLC): 10.9 µM | GI50 (SR leukemia): 1.31 µM | TGI (SR leukemia): 3.62 µM | GI50 (MDA-MB-435): 4.72 µM | TGI (MDA-MB-435): 10.8 µM | GI50 (UACC-62 melanoma): 5.9 µM | TGI (UACC-62 melanoma): 12.8 µM | GI50 (EKVX NSCLC): 5.07 µM | TGI (EKVX NSCLC): 12.9 µM | GI50 (SF-295 CNS): 2.28 µM | TGI (SF-295 CNS): 8.58 µM | GI50 (HT29 colon): 1.54 µM | TGI (HT29 colon): 7.43 µM | GI50 (786-0 renal): 2.24 µM | TGI (786-0 renal): 8.37 µM | GI50 (SK-MEL-2 melanoma): 7.79 µM | TGI (SK-MEL-2 melanoma): 16 µM | GI50 (OVCAR-5 ovarian): 2.81 µM | TGI (OVCAR-5 ovarian): 9.92 µM | GI50 (T-47D breast): 7 µM | TGI (T-47D breast): 18.8 µM | GI50 (NCI/ADR-RES ovarian): 2.46 µM | TGI (NCI/ADR-RES ovarian): 10.6 µM | GI50 (HOP-92 NSCLC): 1.34 µM | TGI (HOP-92 NSCLC): 7.56 µM | GI50 (TK-10 renal): 6.43 µM | TGI (TK-10 renal): 13.9 µM | GI50 (UO-31 renal): 1.44 µM | TGI (UO-31 renal): 7.5 µM | GI50 (CCRF-CEM leukemia): 2.12 µM | TGI (CCRF-CEM leukemia): 50 µM | GI50 (SW-620 colon): 1.76 µM | TGI (SW-620 colon): 7.85 µM | GI50 (NCI-H460 lung): 2.07 µM | TGI (NCI-H460 lung): 7.44 µM | GI50 (SK-MEL-5 melanoma): 4.46 µM | TGI (SK-MEL-5 melanoma): 10.5 µM | GI50 (NCI-H23 lung): 3.69 µM | TGI (NCI-H23 lung): 11.9 µM | GI50 (SNB-19 CNS): 4.01 µM | TGI (SNB-19 CNS): 11 µM | GI50 (K-562 leukemia): 1.46 µM | TGI (K-562 leukemia): 8.78 µM | GI50 (SF-268 CNS): 3.83 µM | TGI (SF-268 CNS): 10.6 µM | GI50 (MDA-MB-231 breast): 3.33 µM | TGI (MDA-MB-231 breast): 10.5 µM | GI50 (SK-MEL-28 melanoma): 6.67 µM | TGI (SK-MEL-28 melanoma): 14 µM | GI50 (NCI-H226 lung): 3.59 µM | TGI (NCI-H226 lung): 12 µM | GI50 (HL-60(TB) leukemia): 3.49 µM | TGI (HL-60(TB) leukemia): 12.7 µM | GI50 (HCC-2998 colon): 1.86 µM | TGI (HCC-2998 colon): 6.86 µM | GI50 (IGROV1 ovarian): 2.01 µM | TGI (IGROV1 ovarian): 9.2 µM | GI50 (RPMI-8226 leukemia): 1.56 µM | TGI (RPMI-8226 leukemia): 6.45 µM | GI50 (CAKI-1 renal): 2.39 µM | TGI (CAKI-1 renal): 9.26 µM | GI50 (HCT-116 colon): 1.44 µM | TGI (HCT-116 colon): 6.62 µM | GI50 (MALME-3M melanoma): 4.25 µM | TGI (MALME-3M melanoma): 11 µM | GI50 (SNB-75 CNS): 5.68 µM | TGI (SNB-75 CNS): 11.9 µM | GI50 (PC-3 prostate): 1.94 µM | TGI (PC-3 prostate): 9.38 µM | GI50 (COLO 205 colon): 1.47 µM | TGI (COLO 205 colon): 6.46 µM | GI50 (U251 CNS): 2.49 µM | TGI (U251 CNS): 10.2 µM | GI50 (DU-145 prostate): 2.56 µM | TGI (DU-145 prostate): 8.83 µM | GI50 (OVCAR-3 ovarian): 3.09 µM | TGI (OVCAR-3 ovarian): 9.97 µM | GI50 (KM12 colon): 5.13 µM | TGI (KM12 colon): 12.6 µM | GI50 (LOX IMVI melanoma): 1.67 µM | TGI (LOX IMVI melanoma): 6.15 µM | GI50 (BT-549 breast): 5.13 µM | TGI (BT-549 breast): 11.7 µM | GI50 (MOLT-4 leukemia): 1.5 µM | TGI (MOLT-4 leukemia): 8.73 µM | GI50 (MCF7 breast): 1.8 µM | TGI (MCF7 breast): 7.93 µM | GI50 (SK-OV-3 ovarian): 6.05 µM | TGI (SK-OV-3 ovarian): 12.9 µM | GI50 (OVCAR-4 ovarian): 2.64 µM | TGI (OVCAR-4 ovarian): 9.42 µM | GI50 (NCI-H522 lung): 2.72 µM | TGI (NCI-H522 lung): 12.6 µM | GI50 (OVCAR-8 ovarian): 2.32 µM | TGI (OVCAR-8 ovarian): 11.1 µM | GI50 (RXF 393 renal): 1.42 µM | TGI (RXF 393 renal): 5.4 µM | GI50 (SF-539 CNS): 2.43 µM | TGI (SF-539 CNS): 9.07 µM | GI50 (M14 melanoma): 5.83 µM | TGI (M14 melanoma): 13 µM | GI50 (HOP-62 NSCLC): 3.77 µM | TGI (HOP-62 NSCLC): 12.5 µM | GI50 (A498 renal): 1.24 µM | TGI (A498 renal): 6.9 µM | GI50 (UACC-257 melanoma): 7.77 µM | TGI (UACC-257 melanoma): 17.8 µM | GI50 (HS 578T breast): 5.14 µM | TGI (HS 578T breast): 15.4 µM | GI50 (HCT-15 colon): 2.01 µM | TGI (HCT-15 colon): 7.64 µM | GI50 (ACHN renal): 2.39 µM | TGI (ACHN renal): 8.88 µM | GI50 (SN12C renal): 2.41 µM | TGI (SN12C renal): 9.15 µM
